Data from patent US20050075371A1, “Methods and compositions for the oral administration of prodrugs of proton pump inhibitors” (ALLERGAN, INC., priority 2003, published 2005).
Converted amounts (≈) assume the structure as drawn. Where two headings read alike, the source gives them in different places.

Key:
[1] = Solubility profile in buffered aqueous solutions; format: physicochemical; settings: 25° C.
From the text: While not intending to be bound in any way by theory, it is believed that this improvement in solubility is due to the deprotonation of a sufficient quantity of the acid.

[2] = Hygroscopicity on storage; format: physicochemical; settings: 14 days of storage at 25° C. at 75% relative humidity
Protocol: The physicochemical properties of compound 1 were analyzed.

[3] = Systemic omeprazole after enteric-coated or regular capsules in monkeys; format: in vivo; settings: Monkey, oral capsule of sodium salt of compound 1
Protocol: (§1) The bioavailability of compound 1 in enterically coated and non enterically coated dosage forms was investigated for dogs and monkeys. Regular and enteric-coated size 3 HPMC capsules (Capsugel, Morris Plains, N.J.) containing compound 1 were prepared by placing the appropriate amount of the sodium salt of compound 1 in the capsule. The enteric-coating material was prepared by dissolving cellulose acetate phthalate in a mixture of isopropyl alcohol and dichloromethane. The entire capsule was dipped in the enteric-coating material, and the isopropyl alcohol and dichloromethane were allowed to evaporate. The dosage forms were administered to the animals and the concentration of the omeprazole in the blood was determined as described in the oral bioavailability determination of Example 2. The maximum concentration of omeprazole (Cmax) and the total area under the curve (AUC) for the animals receiving both enterically coated and non-enterically coated oral dosage forms is presented in Table 4B. In both dogs and monkeys, both the Cmax and the AUC are higher for the non-enterically coated dosage form.

[4] = Systemic half-life after oral or intravenous administration in dogs; format: in vivo, dogs (beagle); settings: for half-life: beagle, dog, blood
Protocol: (§2) Blood concentrations of the compounds omeprazole, lansoprazole, pantoprazole, rabeprazole, and test compounds were quantified using an achiral liquid chromatography tandem mass spectrometry method (LC-MS/MS). Systemic pharmacokinetic parameters were determined for omeprazole or lansoprazole using non-compartmental analysis in Watson® version 6.3, available from InnaPhase Corporation, Philadelphia, Pa.

[5] = Stability profile in buffered aqueous solutions; format: physicochemical; settings: 25° C.
[6] = Systemic omeprazole after enteric-coated or regular capsules in dogs; format: in vivo; settings: Dog, oral capsule of sodium salt of compound 1
Protocol: as §1

[7] = Systemic half-life after oral or intravenous administration in rats; format: in vivo, rats (Sprague-Dawley); settings: for Systemic omeprazole half-life / half-life: rats; for half-life: Sprague-Dawley, rat, blood
Protocol: as §2

Caco-2 cells = test: Membrane permeability (Papp) across Caco-2 cell monolayer, apical to basolateral; format: in vitro ADME; settings: Caco-2, apical to basolateral, 10 μM, 37° C.
Protocol: (§3) Determination of membrane permeability in all examples described herein was accomplished by the following procedure. This procedure is also used to determine whether a given prodrug falls within the scope of those claims given herein which relate to membrane permeability.
(§4) Caco-2 cells were seeded on Costar™ 12 mm diameter, 0.4 μm pore size transwell filters, and were cultured at 37° C., 5% CO2 in a humidified tissue culture chamber.
(§5) DMEM was equilibrated as a transport buffer in 37° C. water bath an hour before experiment. The cells were then equilibrated in transport buffer for 1 hr at 37° C.
(§6) Dosing solution (10 μM) was prepared by adding a 20 μL aliquot of a 10 mM stock solution of the prodrug to 20 mL of transport buffer.
(§7) Transport across Caco-2 cell monolayer was measured at 37° C., in the apical to basolateral direction (n=3).
(§8) Transport buffer was removed from both apical and basolateral compartment of filters. Dosing solution (0.2 mL) was added to the apical compartment of the cell layers on transwell filters, and 0.8 ml fresh pre-warmed transport buffer was added to basolateral compartment. Timing was started for transport, and at 5, 20, and 60 min after transport started, sample fluid (400 μL) was collected from the basolateral compartment. Fresh transport buffer (400 μL) was added back to the basolateral compartment, and the fluid was thoroughly mixed.
(§9) Transport samples, dosing solution, and standards(100 μL) each were mixed with 100 μl of a 500 ng/ml internal standard (Lansoprazole-D) for LC-MS/MS analysis, and part of each sample (100 μL) was vortexed and transferred into glass LC-MS/MS vials for analysis.
(§10) The apparent permeability coefficient (Papp, cm/sec), otherwise known herein as the membrane permeability, is determined from the following relationship: Papp=J/(ACo) where J (pmol/min) is the transport rate, meaning the rate of prodrug movement through the cell layer, A (cm^2) is the filter surface area, and Co (μM) is the initial dosing concentration.
(§11) The transport rate J, is calculated as the slope of the linear regression fit for the transport amount over time data using Microsoft Excel® 97 SR-2 (Microsoft Corp. Redmond, Wash.).
(§12) Lucifer yellow (LY) was used as a paracellular permeability reference standard to determine integrity of cell layers used in the experiments. LY transport in the apical to basolateral direction was carried out in the same manner as described above. Fluorescence level in basolateral fluid sampled at 5, 20, and 60 min post dose was determined using Fluostar Galaxy (BMG Labtechnologies, Durham, N.C.) at excitation/emission wavelengths of 485/520 nm. A standard curve covering the range from 0.002 to 0.5 mg/mL is constructed to quantify the amount of LY in the transport sample to calculate permeability coefficient (Papp).

[8] = Degradation in simulated gastric fluid; format: physicochemical; settings: simulated gastric fluid (USP, pepsin); pH 1.2
Protocol: Simulated gastric fluid was prepared as specified by USP (http://www.uspnf.com/uspnf/usp26nf21/default.htm, Reagents>Solutions>Test Solutions>Gastric Fluid, Simulated). To make 200 mL of simulated gastric fluid, 0.4 g of sodium chloride and 0.64 g of purified pepsin, with an activity of 800 to 2500 units per mg of protein, was dissolved in 1.4 mL of hydrochloric acid and sufficient water. The solution was adjusted to the appropriate pH with hydrochloric acid.
The pH dependence of the half-life of compound 1 in the simulated gastric fluid is depicted in Table 4A.

[9] = Oral administration of solid dosage form to a person suffering from heartburn; format: in vivo; settings: 40 mg compound 1, 50% as sodium salt, oral daily
Protocol: A solid dosage form comprising 40 mg of compound 1, having 50% of the prodrug in the form of the sodium salt, is orally administered daily to a person suffering from heartburn. Relief of pain begins to occur within about 1 day, and continues as long as the person takes the dosage form.

[10] = Membrane permeability (Papp) across Caco-2 cell monolayer, apical to basolateral; format: in vitro ADME; settings: human, Caco-2, apical to basolateral, 37° C.
Protocol: as §3, §4, §5, §6, §7, §8, §9, §10, §11, §12

[11] = somewhat buffer dependent, Kromer et al., Ekpe et al., cited from earlier work
[12] = pH 3, Citric Acid (0.1 M)/Na2HPO4 (0.2 M)
[13] = pH 5, Citric Acid (0.1 M)/Na2HPO4 (0.2 M)
[14] = pH 7, sodium phosphate (0.1-0.2 M)
[15] = pH 9, sodium phosphate (0.1-0.2 M)
[16] = intravenous, equivalent omeprazole dose 1 mg/kg
[17] = oral, equivalent omeprazole dose 10 mg/kg
[18] = pH 7.4, sodium phosphate (0.1-0.2 M)
[19] = pH 10, sodium phosphate (0.1-0.2 M)
[20] = po, Table 2D, read-out: t1/2 (systemic half-life in dogs after oral administration) (converted)
[21] = po, oral solution, systemic half-life of the proton pump inhibitor, unit inferred, read-out: Dog T1/2 PPI (converted)
[22] = oral solution, systemic half-life of the proton pump inhibitor, unit inferred, read-out: Rat T1/2 PPI (converted)

Compound: COc1ccc2c(c1)nc([S+]([O-])Cc1ncc(C)c(OC)c1C)n2S(=O)(=O)c1ccc(OCC(=O)O)cc1 (centres unmarked) [Compound 1]
- Solubility ([1]; pH 1, 0.1 M HCl): 1.8 mg/mL (≈ 3.22 mM)
- Solubility [1, 12]: 0.4 mg/mL (≈ 0.715 mM)
- Solubility [1, 13]: >50 mg/mL
- Solubility [1, 14]: >50 mg/mL
- Solubility [1, 15]: >50 mg/mL
- weight gain [2]: 9%
- AUC Omeprazole/Dose ([3]; Enteric Coating): 18.9 ± 7.9 ng·h/mL/mg/kg
- Cmax Omeprazole/Dose ([3]; Enteric Coating): 6.09 ± 1.04 ng/mL/mg/kg
- AUC Omeprazole/Dose ([3]; Regular Capsule): 19.7 ± 8.8 ng·h/mL/mg/kg
- Cmax Omeprazole/Dose ([3]; Regular Capsule): 14.0 ± 17.1 ng/mL/mg/kg
- Systemic omeprazole half-life [4, 16]: 60 min
- Dog T1/2 PPI ([4]; oral solution, systemic half-life of the proton pump inhibitor, unit inferred): 125 min
- t1/2 (systemic half-life in dogs after oral administration) ([4]; oral, Table 2D): 144 min
- Systemic omeprazole half-life [4, 17]: 144 min
- Degradation Rate Constant (k) ([5]; pH 1, 0.1 M HCl): 0.194 h⁻¹
- Half-life (t1/2) ([5]; pH 1, 0.1 M HCl): 3.6 h
- Shelf life (t90%) ([5]; pH 1, 0.1 M HCl): 0.5 h
- Degradation Rate Constant (k) [5, 12]: 0.009 h⁻¹
- Half-life (t1/2) [5, 12]: 78.0 h
- Shelf life (t90%) [5, 12]: 11.9 h
- Degradation Rate Constant (k) [5, 13]: 0.008 h⁻¹
- Half-life (t1/2) [5, 13]: 89.2 h
- Shelf life (t90%) [5, 13]: 13.6 h
- Degradation Rate Constant (k) [5, 14]: 0.002 h⁻¹
- Half-life (t1/2) [5, 14]: 286.8 h
- Shelf life (t90%) [5, 14]: 43.6 h
- Degradation Rate Constant (k) [5, 18]: 0.002 h⁻¹
- Half-life (t1/2) [5, 18]: 291.2 h
- Shelf life (t90%) [5, 18]: 44.3 h
- Degradation Rate Constant (k) [5, 15]: 0.030 h⁻¹
- Half-life (t1/2) [5, 15]: 23.0 h
- Shelf life (t90%) [5, 15]: 3.5 h
- Degradation Rate Constant (k) [5, 19]: 0.298 h⁻¹
- Half-life (t1/2) [5, 19]: 2.3 h
- Shelf life (t90%) [5, 19]: 0.4 h
- AUC Omeprazole/Dose ([6]; Enteric Coating): 82.2 ± 18.4 ng·h/mL/mg/kg
- Cmax Omeprazole/Dose ([6]; Enteric Coating): 22.5 ± 7.3 ng/mL/mg/kg
- AUC Omeprazole/Dose ([6]; Regular Capsule): 91.3 ± 32.9 ng·h/mL/mg/kg
- Cmax Omeprazole/Dose ([6]; Regular Capsule): 29.2 ± 11.8 ng/mL/mg/kg
- Prodrug in the bloodstream 5 minutes after intravenous administration ([7]; rats (Table 2A study), intravenous, 5 minutes): not detected
- Systemic omeprazole half-life [7, 16]: 10.8 min
- Systemic omeprazole half-life [7, 17]: 102 min
- Permeability (Caco-2 cells): 0.12 ×10⁻⁶ cm/s
- Half-life in Simulated Gastric Fluid [8]: 180 min
- Relief of pain begins to occur [9]: ≤ 1 days

Compound: Cc1c(OCC(F)(F)F)ccnc1C[S+]([O-])c1nc2ccccc2[nH]1 (centres unmarked) [Lansoprazole, reference compound]
- half-life [4, 20]: 34.2 min
- half-life [4, 21]: 34.4 min
- half-life [7, 22]: 30.6 min
- Papp A→B at 60 min, 10 μM [10]: 15 ×10⁻⁶ cm/s

Compound: COc1ccc2[nH]c([S+]([O-])Cc3ncc(C)c(OC)c3C)nc2c1 (centres unmarked) [Omeprazole, reference compound]
- typical half-life (aqueous stability) ([11]; pH 5): about 1 hour
- typical half-life (aqueous stability) ([11]; pH 7): about 40 hours
- half-life ([4]; iv, 1 mg/kg, intravenous, equivalent omeprazole dose 1 mg/kg, read-out: Systemic omeprazole half-life (converted)): 36 min
- half-life ([4]; po, 10 mg/kg, oral, equivalent omeprazole dose 10 mg/kg, read-out: Systemic omeprazole half-life (converted)): 42 min
- half-life [4, 20]: 42 min
- half-life [4, 21]: 41.8 min
- half-life ([7]; intravenous, equivalent omeprazole dose 1 mg/kg, read-out: Systemic omeprazole half-life (converted)): 9 min
- half-life [7, 22]: 18.5 min
- half-life ([7]; oral, equivalent omeprazole dose 10 mg/kg, read-out: Systemic omeprazole half-life (converted)): 18.6 min
- Papp A→B at 60 min, 10 μM [10]: 13 ×10⁻⁶ cm/s
